Tests used:
[1] = test system: human endothelial cell (EC; HAEC); test: MTS cell proliferation assay, human endothelial cells; format: cell-based
Experimental: The CellTiter 96® AQueous Non-Radioactive Cell Proliferation Assay (Promega) was used to assess drug effects on cell proliferation according to the manufacturer's instructions. Briefly, HAECs and HASMCs from early passages were grown to 80-90% confluence in 25 cm^2 tissue culture flasks in a 37° C./5% CO2 incubator prior to harvest. 200 μl of each type of cell suspension (at 20,000 cells/cm^2) was seeded onto separate 96-well plates to yield an approximate 60% confluence per well. Cells were allowed to adhere to the plate surface overnight, followed by addition of 20 ng/ml of TNF-α to stimulate production of inflammatory agents. After a 4-6 hour incubation period, MMI-0100 peptide drug ([…]; SEQ ID NO: 1) was added and cells incubated for another 20-24 hours. Each well was then supplemented with 100 μl of fresh medium and 200 μl of CellTiter 96® AQueous One Solution Reagent and incubated for an additional 1.5-2 hours prior to measuring absorbance of each well at 490 nm with a SoftMax®-equipped plate reader.
In order to determine the effect of pharmacological doses of MMI-0100 ([…]; SEQ ID NO: 1) on human endothelial cell (EC) and smooth muscle cell (SMC) proliferation, human EC and SMC cultures were treated with three concentrations (0.25 mM, 0.5 mM, and 1 mM) of MMI-0100 ([…] (SEQ ID NO: 1)) following pre-treatment with TNF-α.

[2] = test system: JNK; test: JNK radiometric kinase assay; format: biochemical; details: MMI-0100 100 μM; remaining kinase activity
Text: A commercial radiometric assay service was used to test the specificity and potency of MMI-0100 ([…]; SEQ ID NO: 1) by measuring its half maximal inhibitory concentrations (IC50). This quantitative assay measures how much MK2 inhibitor (MMI-0100; […] (SEQ ID NO: 1)) is needed to inhibit 50% of a given biological process or component of a process (i.e., an enzyme, cell, or cell receptor). Specifically, in these assays, a positively charged substrate is phosphorylated with a radiolabeled phosphate group from an ATP if the kinase is not inhibited by an inhibitor peptide. The positively charged substrate then is attracted to a negatively charged filter membrane, quantified with a scintillation counter, and compared to a 100% activity control. ATP concentrations within 15 μM of the apparent Km for ATP were chosen since an ATP concentration near the Km may allow for the kinases to have the same relative amount of phosphorylation activity. […]
For the JNK (c-Jun N-terminal Kinase) radiometric assay, 5-10 mU of JNK was incubated with 50 mM Tris pH 7.5, 0.1 mM EGTA, 0.1% b-mercaptoethanol, 3 μM ATF2 (a substrate for JNK), 10 mM MgAcetate, and 10 μM of [y-^33P-ATP] in the final reaction volume of 25 μl. […] The washed P30 filtermat was dried and its radioactivity was measured by scintillation counter.
IC50 values for inhibitor peptides were determined using Millipore's IC50 Profiler Express service. […]

YARAAARQARAKALARQLGVAA [MMI-0100]
EC proliferation compared to control (20 ng/ml TNF-α alone) ([1]; 0.25 mM MMI-0100): slightly increased | increase in EC proliferation compared to control (20 ng/ml TNF-α alone) ([1]; 0.5 mM MMI-0100): 30% | increase in EC proliferation compared to control (20 ng/ml TNF-α alone) ([1]; 1 mM MMI-0100): 11% | EC morphology, phase contrast images ([1]; 24 hours treatment): no obvious morphological changes | Percent Activity, JNK [2]: 92%
